Tested on: D2/3R
Assay: Kinetic analysis of PET data (1TCM, 2TCM, Logan, SRTM);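 on 2TCM BPND change relative to control: Raclopride 1 mg/kg intravenous pretreatment versus saline controls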;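 on SRTM BPND change relative to control: Raclopride 1 mg/kg intravenous pretreatment versus saline controls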
Type: in vivo, Sprague-Dawley rats
Parameters: key to SRTM BPND / 1TCM BPND / 2TCM BPND (VT-based): BPND = VT(target)/VT(cerebellum) − 1 (or SRTM, cerebellum reference); SRTM BPND change relative to control / 1TCM BPND change relative to control / 2TCM BPND change relative to control / Logan BPND change relative to control: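 Raclopride 1 mg/kg intravenous pretreatment versus saline controls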; 1TCM VT / 2TCM VT: unit not given here
Description: Kinetic analysis is described using the nomenclature proposed by Innis et al.. ROI TACs of [^18F]FEt-AMC13 were analyzed with one-tissue and two-tissue compartmental models of reversible binding (1TCM and 2TCM, respectively) to obtain individual rate constants. From these, the regional distribution volumes (VT) were calculated and compared to those obtained with Logan graphical analysis. Binding potentials (BPND) were calculated from the distribution ratios as VT (target) / VT (cerebellum) – 1, or estimated with the simplified reference tissue model (SRTM) using the cerebellum as reference region.
Metabolite-corrected plasma-derived arterial input function and whole blood time-activity curve were used for Logan, 1TCM, and 2TCM analyses. Fractional cerebral blood volume was set to 3.6 % [27]. For one rat in the raclopride-treated group, no input curves could be obtained; therefore, its PET data were only analyzed with SRTM.
Degree of D2/3R-specific binding of the tracers was characterized by BPND (as given above) or the specific binding ratio (SBR) given as target region activity/cerebellar activity - 1. Both were calculated under control conditions and in response to the raclopride challenge.

[1] = Hypothalamus, raclopride, listed as [18F]FEt-AMC13
[2] = Olfactory bulbs, raclopride, listed as [18F]FEt-AMC13

Oc1ccc2c(c1)O[C@@H](CNCc1ccc(OCC[18F])cc1)CC2 [[^18F]FEt-AMC13]
2TCM k4 (Hypothalamus, control rat D): 0.09 ± 0.01 min⁻¹ | 1TCM BPND (Hypothalamus, raclopride): 0.22±0.04 | 1TCM BPND change relative to control (Hypothalamus, raclopride): -14% | 1TCM VT (Hypothalamus, raclopride): 5.38±0.38 | 2TCM BPND (VT-based) (Hypothalamus, raclopride): 0.18 ± 0.06 | 2TCM BPND change relative to control (Hypothalamus, raclopride): −19% | 2TCM VT (Hypothalamus, raclopride): 5.83±0.34 | Logan BPND (Hypothalamus, raclopride): 0.16±0.04 | Logan BPND change relative to control (Hypothalamus, raclopride): -25% | Logan VT (Hypothalamus, raclopride): 5.76±0.26 | SRTM BPND (Hypothalamus, raclopride): 0.16 ± 0.04 | SRTM BPND change relative to control (Hypothalamus, raclopride): −23% | 2TCM BPND (VT-based) [1]: 0.18±0.06 | 2TCM BPND change relative to control [1]: -19% | SRTM BPND [1]: 0.16±0.04 | SRTM BPND change relative to control [1]: –23% | 1TCM BPND (Olfactory bulbs, control): 0.07±0.16 | 1TCM VT (Olfactory bulbs, control): 4.99±0.62 | 2TCM BPND (VT-based) (Olfactory bulbs, control): 0.08 ± 0.13 | 2TCM VT (Olfactory bulbs, control): 5.45±0.52 | Logan BPND (Olfactory bulbs, control): 0.12±0.12 | Logan VT (Olfactory bulbs, control): 5.64±0.57 | SRTM BPND (Olfactory bulbs, control): 0.10 ± 0.13 | 1TCM K1 (Olfactory bulbs, control rat A): 0.55 ± 0.05 mL/g/min | 1TCM k2 (Olfactory bulbs, control rat A): 0.12 ± 0.02 min⁻¹ | 2TCM K1 (Olfactory bulbs, control rat A): 3.58 ± 1.65 mL/g/min | 2TCM k2 (Olfactory bulbs, control rat A): 9.75 ± 3.75 min⁻¹ | 2TCM k3 (Olfactory bulbs, control rat A): 1.20 ± 2.96 min⁻¹ | 2TCM k4 (Olfactory bulbs, control rat A): 0.09 ± 7.03 min⁻¹ | 1TCM K1 (Olfactory bulbs, control rat B): 0.49 ± 0.02 mL/g/min | 1TCM k2 (Olfactory bulbs, control rat B): 0.08 ± 0.01 min⁻¹ | 2TCM K1 (Olfactory bulbs, control rat B): 0.63 ± 0.07 mL/g/min | 2TCM k2 (Olfactory bulbs, control rat B): 0.47 ± 0.34 min⁻¹ | 2TCM k3 (Olfactory bulbs, control rat B): 0.69 ± 0.56 min⁻¹ | 2TCM k4 (Olfactory bulbs, control rat B): 0.20 ± 0.04 min⁻¹ | 1TCM K1 (Olfactory bulbs, control rat C): 0.44 ± 0.01 mL/g/min | 1TCM k2 (Olfactory bulbs, control rat C): 0.09 ± 0.005 min⁻¹ | 2TCM K1 (Olfactory bulbs, control rat C): 0.59 ± 0.10 mL/g/min | 2TCM k2 (Olfactory bulbs, control rat C): 0.68 ± 0.93 min⁻¹ | 2TCM k3 (Olfactory bulbs, control rat C): 1.07 ± 3.21 min⁻¹ | 2TCM k4 (Olfactory bulbs, control rat C): 0.23 ± 3.75 min⁻¹ | 1TCM K1 (Olfactory bulbs, control rat D): 0.50 ± 0.03 mL/g/min | 1TCM k2 (Olfactory bulbs, control rat D): 0.10 ± 0.01 min⁻¹ | 2TCM K1 (Olfactory bulbs, control rat D): 1.08 ± 0.20 mL/g/min | 2TCM k2 (Olfactory bulbs, control rat D): 1.82 ± 0.90 min⁻¹ | 2TCM k3 (Olfactory bulbs, control rat D): 0.92 ± 0.31 min⁻¹ | 2TCM k4 (Olfactory bulbs, control rat D): 0.11 ± 0.01 min⁻¹ | 1TCM BPND (Olfactory bulbs, raclopride): -0.02±0.03 | 1TCM BPND change relative to control (Olfactory bulbs, raclopride): -127% | 1TCM VT (Olfactory bulbs, raclopride): 4.36±0.55 | 2TCM BPND (VT-based) (Olfactory bulbs, raclopride): 0.01 ± 0.04 | 2TCM BPND change relative to control (Olfactory bulbs, raclopride): −88% | 2TCM VT (Olfactory bulbs, raclopride): 5.02±0.61 | Logan BPND (Olfactory bulbs, raclopride): 0.03±0.03 | Logan BPND change relative to control (Olfactory bulbs, raclopride): -74% | Logan VT (Olfactory bulbs, raclopride): 5.14±0.43 | SRTM BPND (Olfactory bulbs, raclopride): 0.11 ± 0.05 | SRTM BPND change relative to control (Olfactory bulbs, raclopride): +10% | 2TCM BPND (VT-based) [2]: 0.01±0.04 | 2TCM BPND change relative to control [2]: -88% | SRTM BPND [2]: 0.11±0.05 | 1TCM BPND (Pituitary, control): 0.32±0.05 | 1TCM VT (Pituitary, control): 6.16±0.35 | 2TCM BPND (VT-based) (Pituitary, control): 0.36 ± 0.07 | 2TCM VT (Pituitary, control): 6.89±0.32 | Logan BPND (Pituitary, control): 0.42±0.05 | Logan VT (Pituitary, control): 7.15±0.49 | SRTM BPND (Pituitary, control): 0.71 ± 0.32 | 1TCM K1 (Pituitary, control rat A): 0.52 ± 0.05 mL/g/min | 1TCM k2 (Pituitary, control rat A): 0.08 ± 0.02 min⁻¹ | 2TCM K1 (Pituitary, control rat A): 6.16 ± 6.57 mL/g/min | 2TCM k2 (Pituitary, control rat A): 16.8 ± 16.5 min⁻¹ | 2TCM k3 (Pituitary, control rat A): 1.11 ± 15.04 min⁻¹ | 2TCM k4 (Pituitary, control rat A): 0.06 ± 22.82 min⁻¹ | 1TCM K1 (Pituitary, control rat B): 0.63 ± 0.04 mL/g/min | 1TCM k2 (Pituitary, control rat B): 0.10 ± 0.01 min⁻¹ | 2TCM K1 (Pituitary, control rat B): 1.23 ± 0.31 mL/g/min | 2TCM k2 (Pituitary, control rat B): 1.62 ± 0.42 min⁻¹ | 2TCM k3 (Pituitary, control rat B): 0.99 ± 1.42 min⁻¹ | 2TCM k4 (Pituitary, control rat B): 0.12 ± 2.70 min⁻¹ | 1TCM K1 (Pituitary, control rat C): 0.52 ± 0.02 mL/g/min | 1TCM k2 (Pituitary, control rat C): 0.08 ± 0.01 min⁻¹ | 2TCM K1 (Pituitary, control rat C): 0.97 ± 0.34 mL/g/min | 2TCM k2 (Pituitary, control rat C): 1.54 ± 0.73 min⁻¹ | 2TCM k3 (Pituitary, control rat C): 1.23 ± 2.61 min⁻¹ | 2TCM k4 (Pituitary, control rat C): 0.13 ± 4.28 min⁻¹ | 1TCM K1 (Pituitary, control rat D): 0.67 ± 0.05 mL/g/min | 1TCM k2 (Pituitary, control rat D): 0.12 ± 0.02 min⁻¹ | 2TCM K1 (Pituitary, control rat D): 1.38 ± 0.24 mL/g/min | 2TCM k2 (Pituitary, control rat D): 1.48 ± 0.20 min⁻¹ | 2TCM k3 (Pituitary, control rat D): 0.69 ± 0.58 min⁻¹ | 2TCM k4 (Pituitary, control rat D): 0.11 ± 1.34 min⁻¹ | 1TCM BPND (Pituitary, raclopride): 0.18±0.05 | 1TCM BPND change relative to control (Pituitary, raclopride): -38% | 1TCM VT (Pituitary, raclopride): 5.33±0.88 | 2TCM BPND change relative to control (Pituitary, raclopride): −23% | 2TCM VT (Pituitary, raclopride): 6.34±0.82 | Logan BPND change relative to control (Pituitary, raclopride): -26% | Logan VT (Pituitary, raclopride): 6.53±0.44

From publication PMC4512978, “Synthesis and evaluation in rats of homologous series of [^18F]-labeled dopamine D2/3 receptor agonists based on the 2-aminomethylchroman scaffold as potential PET tracers” (EJNMMI Research, 2015)
